Laboratory results reported in patent EP0278158A2, “Renin inhibitors containing phenylalanyl-histidine replacements” (Merck & Co., Inc., priority 1986, dated 1988).
Non-standard residues stand in square brackets, D forms with d. Residues, ends and D or L forms follow the SMILES beside them. *: point of attachment. Sta = CC(C)C[C@H](N)[C@@H](O)CC(=O)O; Isovaleryl = CC(C)CC(=O)*

Key:
[1] = target: T1, renin (Homo sapiens, UniProt P00797); test: renin inhibition (IC50 printed in the synthesis example, no method described); format: biochemical
T1 sequence (P00797 67-406): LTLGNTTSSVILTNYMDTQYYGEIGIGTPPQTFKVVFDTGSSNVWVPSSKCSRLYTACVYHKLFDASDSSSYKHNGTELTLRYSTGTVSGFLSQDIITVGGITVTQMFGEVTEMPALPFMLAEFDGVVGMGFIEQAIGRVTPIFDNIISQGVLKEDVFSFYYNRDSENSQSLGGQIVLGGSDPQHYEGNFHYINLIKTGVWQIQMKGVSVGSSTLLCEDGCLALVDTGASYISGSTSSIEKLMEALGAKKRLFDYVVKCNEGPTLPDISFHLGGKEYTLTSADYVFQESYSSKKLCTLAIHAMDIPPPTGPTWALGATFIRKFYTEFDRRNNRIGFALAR

[2] = test system: hog renin; details: after the injection of hog renin into nephrectomized rats; Gross et al., Science 175:656, 1972; cited from earlier work

Row | SMILES | IC50 [1] [nM] | blood pressure in vivo [2]
1 | CC(C)S(=O)(=O)C[C@@H](CCc1ccccc1)C(=O)N[C@@H](Cc1cnc[nH]1)C(=O)N[C@@H](CC1CCCCC1)[C@@H](O)CC(=O)NC1CN2CCC1CC2 (stereo partly drawn) [3-benzyl-2-(S)-(isopropylsuffonylmethyl)propionyl-L-histidyl-(3S,4S)-4-amino-5-cyclohexyl 3-hydroxypentanoyl 3-quinuclidinyl amide] | 11 | –
2 | CC(C)CC(=O)N[C@H](C(=O)N[C@H](C(=O)N[C@@H](CC(C)C)[C@@H](O)CC(=O)N[C@@H](C)C(=O)N[C@@H](CC(C)C)[C@@H](O)CC(=O)O)C(C)C)C(C)C [pepstatin] (Isovaleryl-VV[Sta]A[Sta]-OH) | – | reduces blood pressure
